This passage reports IC50 results from article PMC6222292 (Computational and Structural Biotechnology Journal, 2018).

In this assay the target is T1, soluble epoxide hydrolase (sEH) (Homo sapiens, UniProt P34913).
T1 sequence (P34913 1-555): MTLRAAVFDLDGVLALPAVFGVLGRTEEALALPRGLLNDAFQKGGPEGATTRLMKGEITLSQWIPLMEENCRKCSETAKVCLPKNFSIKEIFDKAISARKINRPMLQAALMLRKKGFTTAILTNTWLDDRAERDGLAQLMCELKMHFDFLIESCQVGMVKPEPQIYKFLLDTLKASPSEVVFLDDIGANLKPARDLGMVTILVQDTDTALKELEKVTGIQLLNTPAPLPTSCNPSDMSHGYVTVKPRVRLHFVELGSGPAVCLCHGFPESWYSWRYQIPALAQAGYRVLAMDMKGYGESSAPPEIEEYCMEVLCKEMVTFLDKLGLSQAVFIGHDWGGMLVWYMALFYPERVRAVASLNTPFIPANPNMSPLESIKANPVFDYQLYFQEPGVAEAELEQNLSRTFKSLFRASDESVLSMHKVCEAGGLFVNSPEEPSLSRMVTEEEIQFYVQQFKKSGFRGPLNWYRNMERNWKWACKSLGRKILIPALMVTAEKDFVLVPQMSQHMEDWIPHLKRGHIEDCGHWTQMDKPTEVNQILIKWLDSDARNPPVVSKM
Put plainly: fluorescent PHOME hydrolysis assay. The class given is biochemical.

As a reminder, the IC50 is the midpoint of a concentration-inhibition curve. Higher therefore signals weaker potency. Compound `O=C(/C=C/c1ccc(O)cc1)NCCc1ccc(O)cc1` [compound 1, N-trans-coumaroyltyramine] returned an IC50 of 9 ± 0.8 µM.
`COc1cc(/C=C/C(=O)NCCc2ccc(O)cc2)ccc1O` [compound 2, N-trans-feruloyltyramine] showed an IC50 of 10.4 ± 1.1 µM.
